# Laboratory results as given in US11767316B2, “Non-fused thiophene derivatives and their uses” (ENYO PHARMA, priority 2018, dated 2023).
# Tests used:
# LXFL 1121 = assay: Cytotoxicity, propidium iodide based monolayer assay, LXFL 1121; settings: 96 h; LXFL 1121 (lung large cell carcinoma), four days of treatment, T/C=50%; read-out: Absolute IC50
# Procedure: The cytotoxicity was tested for compounds of the invention on five different cell-lines, namely LXFL 1121, MAXF 401, MMXF L-636, PRXF PC-3M and UXF 1138 which are respectively lung large cell carcinoma, breast adeno carcinoma, multiple myeloma, prostate adeno carcinoma and uterine sarcoma.
# A working stock solution of the test compounds was prepared in DMSO at a concentration of 33 mM or 8.25 mM, and small aliquots were stored at −20° C. On each day of an experiment, a frozen aliquot of the working stock solution was thawed and stored at room temperature prior to and during treatment.
# All liquid handling steps were performed using the Tecan Freedom EVO 200 platform. First, serial 2-fold dilutions of the 33 mM DMSO working stock solution were done in DMSO. […]
# A modified propidium iodide (PI) based monolayer assay was used to assess the anti-cancer activity of the compounds. Briefly, cells were harvested from exponential phase cultures, counted and plated in 96 well flat-bottom microtiter plates at a cell density of 4,000 to 40,000 cells/well dependent on the cell line's growth rate. […] After an incubation period of 1-2 hours at room temperature, fluorescence (FU) was measured using the Enspire Multimode Plate Reader (excitation λ=530 nm, emission λ=620 nm) to quantify the amount of attached viable cells. […]
# [1] = target: T1, CISD2 Gene Product (NAF-1) (Homo sapiens, UniProt Q8N5K1); assay: Stability of Fe-S cluster binding of purified NEET protein (absorbance 458 nm), NAF-1; assay type: biochemical
# T1 sequence (Q8N5K1 57-135 limits assumed): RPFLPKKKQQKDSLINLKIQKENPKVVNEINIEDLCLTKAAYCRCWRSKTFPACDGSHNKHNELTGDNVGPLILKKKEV
# Procedure: The modulator effect on the NEET proteins encoded by human CISD1, CISD2, and CISD3 genes by the compounds of the invention has been tested and is reported below. Particularly, the biochemical function of the NEET proteins is measured by the stability of Fe—S cluster binding of the purified NEET proteins.
# The Fe—S cluster binding capacity of NEET proteins is known to be coordinated by four amino-acids in a stretch of 16 (three Cysteine and one Histidine). As the lability of the Fe—S cluster of NEET proteins is sensitive to the environment, cluster stability measurements are one of the measures of interactions of NEET proteins with small molecules and compounds. NEET protein/2Fe-2S cluster stability can be assessed by monitoring the decay in absorbance of its characteristic 458-nm peak (characteristic of the oxidized 2Fe-2S cluster) over time. Each NEET protein (mitoNEET, NAF-1 and Miner 2) was tested for its Fe—S binding in the absence or presence of a compound according to the invention (see table 3 below). […]
# At pH 6, all the three NEET proteins (mitoNEET, NAF-1 and Miner 2) have a characteristic rate of loss of the bound Fe—S cluster that can be measured by the decrease of absorbance at wavelength 458 nm over time, using a spectrophotometer. […]
# A reaction mix containing DMSO diluted in the Bis-Tris Buffer with or without a compound of the invention was prepared. […] The absorbance at wavelength 458 nm was taken at 5 minutes intervals at 37° C. with a spectrofluorimeter. […]
# In addition to time monitoring, residual bound Fe—S cluster to NEET protein was measured at the final point of the spectrometry assay for each Test sample and compared to the Control sample data (in parenthesis table 3). This residual binding is measured by the differential percentage between the absorbance 458 nm at time zero and the absorbance 458 nm at the end of the experiment (i.e. respectively 500 or 180 minutes as described hereabove), showing the percentage of NEET protein still able to bind a Fe—S cluster. […]
compound,measurement,setting,value
O=C(Nc1scc(C2CCc3ccccc3C2)c1C(=O)O)c1ccccc1 (stereo not shown) [#16],IC50,LXFL 1121,878 nM
same,Time (in minutes) to achieve 50% loss of bound cluster (Absorbance 458 nm),"[1]; NAF-1 20 μM, compound 60 μM, pH 6, 37° C., vehicle control 310",35 (310) minutes
same,Residual cluster bound at end of experiment (Percentage Absorbance 458 nm at time zero),"[1]; NAF-1, end of experiment 500 minutes, compound 60 μM, pH 6, vehicle control 3%",4% (3%)
same,Stabiliser or destabiliser of NEET protein/Fe-S cluster binding,"[1]; NAF-1, destabiliser = time to 50% cluster loss decreased by more than 25% vs control",destabilisers
